Test results published in patent publication US20060094059A1, “Methods for identifying new drug leads and new therapeutic uses for known drugs” (Odyssey Thera, Inc., priority 2004, published 2006).
Counter-ions that a name gives are not always drawn. Like-named read-outs stand apart in the source and are kept apart here.

Legend:
human tumor cell lines = experiment: MTT proliferation assay and phase contrast images, cell line not given (FIGS. 5-10); assay type: cell-based; details: treated cells vs. DMSO control, cell line not named
Protocol: (§1) We used these methods to mine the known pharmacopeia for drugs with previously-unsuspected activity against cancer-related pathways. […] Hits from our cell-based screens were tested for antiproliferative activity in up to 5 different human tumor cell lines, as follows. First, drugs with significant activity in the cellular screen(s) were tested for their ability to block proliferation of a human tumor cell line (PC-3) at an initial concentration of 10 micromolar. For drugs with antiproliferative activity in PC-3 cells, dose-response curves to determine the IC50 for antiproliferative activity and additional tumor cell lines were tested to determine the breadth of activity. Methods for assessing the antiproliferative activity of the cell-based drug ‘hits’ are described below.
Cells were maintained in various media as follows: A549, LoVo and PC-3 (Ham's F12K medium with 2 mM L-glutamine and 1.5 g/L sodium bicarbonate), MIA PaCa-2 (Dulbecco's modified Eagle's medium with 4 mM L-glutamine and 4.5 g/L glucose), U87-MG (MEM+Earle's BSS). Medium for each cell line was supplemented with 10% FBS and […] Penecillin/Streptomycin. All cells were grown in incubators set at 37° C., 5% CO2. Thiazolyl Blue Tetrazolium Bromide (MTT) based proliferation assays were performed to assess the anti-proliferative activities of the compounds on these cells. Cells were seeded in 96 well plates at a density of 750 cells/well 24 hours prior to compound treatment. The cells were incubated with varying concentrations of compounds for 120 hours. Compound concentrations range from 0.03 to 100 microM (half log increments) except for alpha-Tomatine (0.001-100 microM, half log increments), Neriifolin (0.0002-100 microM) and Peruvoside (0.01-100 microM). Drug treatment was performed in 5 replicate wells. Background absorbance was established by wells containing medium but no cells. Vehicle (DMSO) only was used as control. MTT (Sigma-Aldrich, St. Louis, Mo.) was added to each well at a final concentration of 0.5 mg/ml. Following a 2 hour incubation at 37° C., medium in the wells was replaced with 0.15 ml DMSO. The plates were agitated for 15 min using a microtiter plate shaker. […] Mean absorbance values were calculated from 5 replicate wells of each drug treatment following subtraction of background absorbance from blank samples and plotted as a percentage of control.

[1] = tested on: non-small cell lung carcinoma (A549) cells; experiment: MTT proliferation assay, NSCLC; assay type: cell-based, Human; details: Homo sapiens, Tumor Cell NSCLC (A549), 120 hours, read-out: Anti-proliferative IC-50
Protocol: (§2) Cells were maintained in various media as follows: A549, LoVo and PC-3 (Ham's F12K medium with 2 mM L-glutamine and 1.5 g/L sodium bicarbonate), MIA PaCa-2 (Dulbecco's modified Eagle's medium with 4 mM L-glutamine and 4.5 g/L glucose), U87-MG (MEM+Earle's BSS). Medium for each cell line was supplemented with 10% FBS and […] Penecillin/Streptomycin. All cells were grown in incubators set at 37° C., 5% CO2. Thiazolyl Blue Tetrazolium Bromide (MTT) based proliferation assays were performed to assess the anti-proliferative activities of the compounds on these cells. Cells were seeded in 96 well plates at a density of 750 cells/well 24 hours prior to compound treatment. The cells were incubated with varying concentrations of compounds for 120 hours. […] Drug treatment was performed in 5 replicate wells. Background absorbance was established by wells containing medium but no cells. Vehicle (DMSO) only was used as control. MTT (Sigma-Aldrich, St. Louis, Mo.) was added to each well at a final concentration of 0.5 mg/ml. Following a 2 hour incubation at 37° C., medium in the wells was replaced with 0.15 ml DMSO. The plates were agitated for 15 min using a microtiter plate shaker.

CDC42:PAK4 complexes = experiment: Protein-fragment complementation assay CDC42:PAK4; assay type: cell-based, human; details: for level of CDC42:PAK4 complexes (intensity of the fluorescence): FIG. 3F, compared with the vehicle alone
From the text: (§3) To construct dynamic assays for protein-protein complexes, we used a protein-fragment complementation assay strategy (PCAs) in intact human cells. (A variety of other suitable assays, and reporter options, are described in detail below.) The principle of PCA is that complementary polypeptide fragments (F[1] and F[2]) of a reporter protein or enzyme will fold into an active form only if fused to two proteins which interact and bring the complementary fragments of the reporter protein into proximity. Reconstitution of the fragments of the reporter protein generates a fluorescent signal that can be quantified in intact cells, and the amount of the signal is proportional to the amount of the protein-protein complex used in constructing the assay. Given a suitable reporter type, the subcellular location of the complex can also be measured.
(§4) Reporter fragments for PCA were generated by oligonucleotide synthesis (Blue Heron Biotechnology, Bothell, Wash.), starting with the sequence of yellow fluorescent protein (YFP). First, oligonucleotides coding for polypeptide fragments YFP[1]and YFP[2] […] Next, PCR mutagenesis was used to generate the mutant fragments IFP[1] and IFP[2]. The IFP[1] fragment corresponds to YFP[1]-(F46L, F64L, M153T) and the IFP[2] fragment corresponds to YFP[2]-(V163A, S175G). […] The YFP[1], YFP[2], IFP[1] and IFP[2] fragments were amplified by PCR to incorporate restriction sites and a linker sequence, described below, in configurations that would allow fusion of a gene of interest to either the 5′- or 3′-end of each reporter fragment. The reporter-linker fragment cassettes were subcloned into a mammalian expression vector (pcDNA3.1Z, Invitrogen) that had been modified to incorporate the replication origin (oriP) of the Epstein Barr virus (EBV). […] Additionally, these vectors still retain the SV40 origin, allowing for episomal expression in cell lines expressing the SV40 large T antigen (e.g. HEK293T, Jurkat or COS).
(§5) PCA fusion constructs were prepared for a proteins known to participate in cellular pathways that have been described in the scientific literature as being linked to cancer. The selection of protein-protein complexes used, and the rationale for their use, is provided in Table 1 and the gene identifiers for the cDNAs used in assay construction are provided in Table 2. The full coding sequence for each gene of interest was amplified by PCR from a sequence-verified full-length cDNA. Resulting PCR products were column purified (Centricon), digested with appropriate restriction enzymes to allow directional cloning, and fused in-frame to either the 5′ or 3′-end of YFP[1], YFP[2], IFP[1] or IFP[2] through a linker encoding a flexible 10 amino acid peptide (Gly.Gly.Gly.Gly.Ser)2. […] Recombinants in the host strains DH5-alpha (Invitrogen, Carlsbad, Calif.) or XL1 Blue MR (Stratagene, La Jolla, Calif.) were screened by colony PCR, and clones containing inserts of the correct size were subjected to end sequencing to confirm the presence of the gene of interest and in-frame fusion to the appropriate reporter fragment. A subset of fusion constructs were selected for full-insert sequencing by primer walking. DNAs were isolated using Qiagen MaxiPrep kits (Qiagen, Chatsworth, Calif.). PCR was used to assess the integrity of each fusion construct, by combining the appropriate gene-specific primer with a reporter-specific primer to confirm that the correct gene-fusion was present and of the correct size with no internal deletions.
(§6) HEK293 cells were maintained in MEM alpha medium (Invitrogen) supplemented with 10% FBS (Gemini Bio-Products), 1% penicillin, and 1% streptomycin, and grown in a 37° C. incubator equilibrated to 5% CO2. […] Up to 100 ng of the complementary YFP or IFP-fragment fusion vectors were co-transfected using Fugene 6 (Roche) according to the manufacturer's protocol.

[2] = tested on: prostate adenocarcinoma (PC-3) cells; experiment: MTT proliferation assay, prostate; assay type: cell-based, Human; details: for IC50: Homo sapiens, Tumor Cell Prostate (PC-3), MTT, 120 hours, read-out: Anti-proliferative IC-50
Protocol: as §1, §2

[3] = tested on: colon adenocarcinoma (LoVo) cells; experiment: MTT proliferation assay, colon; assay type: cell-based, Human; details: Homo sapiens, Tumor Cell Colon (LoVo), 120 hours, read-out: Anti-proliferative IC-50
Protocol: as §2

[4] = tested on: pancreatic carcinoma (MIA PaCa-2) cells; experiment: MTT proliferation assay, pancreatic; assay type: cell-based, Human; details: Homo sapiens, Tumor Cell Pancreatic (MIA PaCa-2), 120 hours, read-out: Anti-proliferative IC-50
Protocol: as §2

Ras:Raf complexes = experiment: Protein-fragment complementation assay H-Ras:Raf; assay type: cell-based, human; details: for Assay activity: hit in Ras/Raf assay, drugs screened at 10 micromolar; for level of the Ras:Raf complexes (intensity of the fluorescence) / subcellular location of the Ras:Raf complexes: FIG. 3E; for level of the Ras:Raf complexes (intensity of the fluorescence): compared with the vehicle alone; for subcellular location of the Ras:Raf complexes: in control cells complexes localized at the cell membrane
From the text: as §3, §4, §5, §6

[5] = tested on: glioblastoma (U-87 MG) cells; experiment: MTT proliferation assay, glioblastoma; assay type: cell-based; details: Homo sapiens, Tumor Cell Glioblastoma (U-87 MG), 120 hours, read-out: Anti-proliferative IC-50
Protocol: as §2

PAK4:Cofilin = experiment: Protein-fragment complementation assay PAK4:Cofilin; assay type: cell-based, human; details: hit in PAK4/CFL assay; drugs screened at 10 micromolar
From the text: as §3, §4, §5, §6

[6] = hit in CDC42/PAK4 assay, drugs screened at 10 micromolar

SMILES | IC50 [1] [µM] | IC50 [2] [µM] | IC50 [3] [µM] | IC50 [4] [µM] | IC50 [5] [µM] | further results
Clc1ccccc1C(c1ccccc1)(c1ccccc1)n1ccnc1 [clotrimazole] |  |  |  |  |  | cell count (phase contrast images) (human tumor cell lines): decreased the cell count
COC(=O)[C@H]1[C@H]2C[C@H]3c4[nH]c5cc(OC)ccc5c4CCN3C[C@H]2C[C@@H](OC(=O)c2cc(OC)c(OC)c(OC)c2)[C@@H]1OC [isoreserpine] |  |  |  |  |  | cell count (phase contrast images) (human tumor cell lines): decreased the cell count
CCCSc1ccc2nc(NC(=O)OC)[nH]c2c1 [Albendazole] | 0.24 | 0.3 | 0.14 | 0.18 |  | Assay activity (CDC42:PAK4 complexes): CDC42/PAK4
CCN(CC)CCOc1ccc(C(=C(Cl)c2ccccc2)c2ccccc2)cc1 [Clomiphene] |  |  |  |  |  | Assay activity (Ras:Raf complexes): Ras/Raf
CN1C[C@H](CNC(=O)OCc2ccccc2)C[C@@H]2c3cccc4c3c(cn4C)C[C@H]21 [Metergoline] | 5.4 | 6.19 | 6.97 | 3.35 | 4.6 | level of CDC42:PAK4 complexes (intensity of the fluorescence) (CDC42:PAK4 complexes): decrease in the level; Assay activity (CDC42:PAK4 complexes; [6]): CDC42/PAK4; level of the Ras:Raf complexes (intensity of the fluorescence) (Ras:Raf complexes): decrease in the level; subcellular location of the Ras:Raf complexes (Ras:Raf complexes): redistribution of the complexes to an intracellular structure
C[C@H]1CC[C@]2(NC1)O[C@H]1C[C@H]3[C@@H]4CC[C@H]5C[C@@H](O[C@@H]6O[C@H](CO)[C@H](O[C@@H]7O[C@H](CO)[C@@H](O)[C@H](O[C@@H]8OC[C@@H](O)[C@H](O)[C@H]8O)[C@H]7O[C@@H]7O[C@H](CO)[C@@H](O)[C@H](O)[C@H]7O)[C@H](O)[C@H]6O)CC[C@]5(C)[C@H]4CC[C@]3(C)[C@H]1[C@@H]2C [Tomatine] | 0.092 | 0.09 | 0.097 | 0.131 |  | Assay activity (CDC42:PAK4 complexes; [6]): Cdc42/PAK4
CC/C(=C(\c1ccccc1)c1ccc(OCCN(C)C)cc1)c1ccccc1 [tamoxifen citrate] |  |  |  |  |  | level of the Ras:Raf complexes (intensity of the fluorescence) (Ras:Raf complexes): decrease in the level; subcellular location of the Ras:Raf complexes (Ras:Raf complexes): redistribution of the complexes to an intracellular structure
CC(C)(C)c1ccc(C(O)CCCN2CCC(C(O)(c3ccccc3)c3ccccc3)CC2)cc1 (stereo not drawn) [Terfenadine] | 0.55 |  | 0.99 | 0.35 | 0.38 | level of CDC42:PAK4 complexes (intensity of the fluorescence) (CDC42:PAK4 complexes): decrease in the level; Assay activity (CDC42:PAK4 complexes; [6]): CDC42/PAK4; cell count (phase contrast images) (human tumor cell lines): reduced the cell count
C[n+]1cc2c3c(ccc2c2ccc4cc5c(cc4c21)OCO5)OCO3 [Sanguinarine] | 0.78 | 0.33 | 0.81 | 0.18 | 0.34 | 
CC(C)COCC(CN(Cc1ccccc1)c1ccccc1)N1CCCC1 (stereo not drawn) [Bepridil] |  | 8.69 | 3.68 |  | 5.75 | level of CDC42:PAK4 complexes (intensity of the fluorescence) (CDC42:PAK4 complexes): decrease in the level; Assay activity (CDC42:PAK4 complexes; [6]): CDC42/PAK4
C(=C\c1ccccc1)/CN1CCN(C(c2ccccc2)c2ccccc2)CC1 [Cinnarizine] |  |  |  |  |  | cell count (phase contrast images) (human tumor cell lines): decreased the cell count
CN(C)CCCN1c2ccccc2Sc2ccccc21 [Promazine] | 13.9 | 13.9 | 13.9 | 5.13 | 16.4 | level of the Ras:Raf complexes (intensity of the fluorescence) (Ras:Raf complexes): decrease in the level; subcellular location of the Ras:Raf complexes (Ras:Raf complexes): redistribution of the complexes to an intracellular structure; Assay activity (Ras:Raf complexes): Ras/Raf
COC(=O)Nc1nc2ccc(C(=O)c3ccccc3)cc2[nH]1 [Mebendazole] | 0.18 | 0.27 | 0.07 | 0.13 |  | Assay activity (PAK4:Cofilin): PAK4/CFL
CNCCCN1c2ccccc2CCc2ccccc21 [Desipramine] |  | 14.6 | 10.6 |  | 6.9 | level of the Ras:Raf complexes (intensity of the fluorescence) (Ras:Raf complexes): decrease in the level; subcellular location of the Ras:Raf complexes (Ras:Raf complexes): redistribution of the complexes to an intracellular structure; Assay activity (Ras:Raf complexes): Ras/Raf
Cc1cccc(Nc2cc(Cl)nc(SCC(=O)O)n2)c1C [WY-14643] |  |  |  |  |  | proliferation of PC-3 cells (MTT assay) ([2]; FIG. 4, compared to the DMSO control): no effect on proliferation
Oc1ccc(Cl)cc1Cc1cc(Cl)ccc1O [Dichlorophene] |  |  |  |  |  | Assay activity (Ras:Raf complexes): Ras/Raf
